Measured values taken from the NIST ThermoML archive (doi:10.1016/j.jct.2016.10.024).

Assay: mn = molality of the nth substance listed, in mol/kg
Conditions: 75 kPa, Liquid, Buoyancy - hydrostatic balance with magnetic suspension - one sinker

CCCC(N)=O [butanamide] + O
Conditions	mass density [kg/m3]
275.66 K, m1 = 0.1003	1000.06
275.66 K, m1 = 0.1971	1000.2
275.66 K, m1 = 0.301	1000.37
275.66 K, m1 = 0.4013	1000.56
275.66 K, m1 = 0.4955	1000.75
275.66 K, m1 = 0.6013	1000.97
275.66 K, m1 = 0.695	1001.2
275.66 K, m1 = 0.8012	1001.46
276.14 K, m1 = 0.1021	1000.06
276.14 K, m1 = 0.1961	1000.2
276.14 K, m1 = 0.2967	1000.37
276.14 K, m1 = 0.4955	1000.75
276.14 K, m1 = 0.6013	1000.96
276.14 K, m1 = 0.6982	1001.18
276.14 K, m1 = 0.8012	1001.42
276.14 K, m1 = 0.9855	1001.87
276.61 K, m1 = 0.1009	1000.05
276.61 K, m1 = 0.1973	1000.18
276.61 K, m1 = 0.2967	1000.33
276.61 K, m1 = 0.4013	1000.51
276.61 K, m1 = 0.5977	1000.89
276.61 K, m1 = 0.7003	1001.11
276.61 K, m1 = 0.8012	1001.35
276.61 K, m1 = 0.9976	1001.83
277.15 K, m1 = 0.1021	1000.09
277.15 K, m1 = 0.1961	1000.21
277.15 K, m1 = 0.2967	1000.35
277.15 K, m1 = 0.4955	1000.69
277.15 K, m1 = 0.6013	1000.9
277.15 K, m1 = 0.6982	1001.13
277.15 K, m1 = 0.8012	1001.4
277.15 K, m1 = 0.9855	1001.94
277.61 K, m1 = 0.1009	1000.08
277.61 K, m1 = 0.1973	1000.21
277.61 K, m1 = 0.2967	1000.36
277.61 K, m1 = 0.4013	1000.53
277.61 K, m1 = 0.5977	1000.89
277.61 K, m1 = 0.7003	1001.1
277.61 K, m1 = 0.8024	1001.32
277.61 K, m1 = 0.9976	1001.77
278.12 K, m1 = 0.1076	1000.07
278.12 K, m1 = 0.1971	1000.19
278.12 K, m1 = 0.3283	1000.38
278.12 K, m1 = 0.4191	1000.51
278.12 K, m1 = 0.5074	1000.65
278.12 K, m1 = 0.6233	1000.85
278.12 K, m1 = 0.7379	1001.04
278.12 K, m1 = 0.8761	1001.28
278.68 K, m1 = 0.1003	1000.05
278.68 K, m1 = 0.1971	1000.17
278.68 K, m1 = 0.301	1000.31
278.68 K, m1 = 0.4013	1000.46
278.68 K, m1 = 0.4955	1000.62
278.68 K, m1 = 0.6013	1000.81
278.68 K, m1 = 0.695	1001
278.68 K, m1 = 0.8012	1001.23

CCC(N)=O [propanamide] + O
Conditions	mass density [kg/m3]
275.66 K, m1 = 0.09705	1000.26
275.66 K, m1 = 0.18	1000.53
275.66 K, m1 = 0.2822	1000.89
275.66 K, m1 = 0.3869	1001.24
275.66 K, m1 = 0.4939	1001.62
275.66 K, m1 = 0.5946	1002
275.66 K, m1 = 0.702	1002.4
275.66 K, m1 = 0.8002	1002.77
276.14 K, m1 = 0.1006	1000.29
276.14 K, m1 = 0.1957	1000.6
276.14 K, m1 = 0.2937	1000.93
276.14 K, m1 = 0.3933	1001.26
276.14 K, m1 = 0.4953	1001.62
276.14 K, m1 = 0.59	1001.96
276.14 K, m1 = 0.7073	1002.39
276.14 K, m1 = 0.799	1002.72
276.61 K, m1 = 0.09735	1000.27
276.61 K, m1 = 0.2018	1000.61
276.61 K, m1 = 0.3001	1000.94
276.61 K, m1 = 0.3875	1001.23
276.61 K, m1 = 0.4999	1001.62
276.61 K, m1 = 0.5929	1001.94
276.61 K, m1 = 0.702	1002.32
276.61 K, m1 = 0.7924	1002.63
277.15 K, m1 = 0.1006	1000.29
277.15 K, m1 = 0.1957	1000.61
277.15 K, m1 = 0.2937	1000.93
277.15 K, m1 = 0.3933	1001.27
277.15 K, m1 = 0.4953	1001.61
277.15 K, m1 = 0.59	1001.93
277.15 K, m1 = 0.7073	1002.35
277.15 K, m1 = 0.799	1002.67
277.61 K, m1 = 0.09735	1000.28
277.61 K, m1 = 0.2018	1000.61
277.61 K, m1 = 0.3001	1000.92
277.61 K, m1 = 0.3875	1001.21
277.61 K, m1 = 0.4999	1001.59
277.61 K, m1 = 0.5929	1001.9
277.61 K, m1 = 0.694	1002.23
277.61 K, m1 = 0.8027	1002.59
278.12 K, m1 = 0.09735	1000.28
278.12 K, m1 = 0.2018	1000.62
278.12 K, m1 = 0.297	1000.92
278.12 K, m1 = 0.4495	1001.43
278.12 K, m1 = 0.4911	1001.58
278.12 K, m1 = 0.5697	1001.85
278.12 K, m1 = 0.7087	1002.34
278.12 K, m1 = 0.8713	1002.91
278.68 K, m1 = 0.09705	1000.26
278.68 K, m1 = 0.18	1000.51
278.68 K, m1 = 0.2822	1000.84
278.68 K, m1 = 0.3869	1001.18
278.68 K, m1 = 0.4939	1001.53
278.68 K, m1 = 0.5946	1001.87
278.68 K, m1 = 0.702	1002.24
278.68 K, m1 = 0.8002	1002.58

CC(N)=O [ethanamide] + O
Conditions	mass density [kg/m3]
275.66 K, m1 = 0.102	1000.47
275.66 K, m1 = 0.2015	1000.96
275.66 K, m1 = 0.2995	1001.42
275.66 K, m1 = 0.4032	1001.9
275.66 K, m1 = 0.4848	1002.29
275.66 K, m1 = 0.5945	1002.81
275.66 K, m1 = 0.6875	1003.24
275.66 K, m1 = 0.7747	1003.64
276.14 K, m1 = 0.09682	1000.43
276.14 K, m1 = 0.2023	1000.93
276.14 K, m1 = 0.3049	1001.42
276.14 K, m1 = 0.4077	1001.91
276.14 K, m1 = 0.5003	1002.35
276.14 K, m1 = 0.6016	1002.82
276.14 K, m1 = 0.7037	1003.3
276.14 K, m1 = 0.8092	1003.79
276.61 K, m1 = 0.1016	1000.37
276.61 K, m1 = 0.1972	1000.9
276.61 K, m1 = 0.299	1001.39
276.61 K, m1 = 0.4078	1001.9
276.61 K, m1 = 0.4957	1002.32
276.61 K, m1 = 0.6048	1002.83
276.61 K, m1 = 0.6858	1003.21
276.61 K, m1 = 0.8092	1003.78
277.15 K, m1 = 0.09682	1000.43
277.15 K, m1 = 0.2023	1000.93
277.15 K, m1 = 0.3049	1001.41
277.15 K, m1 = 0.4077	1001.88
277.15 K, m1 = 0.5003	1002.32
277.15 K, m1 = 0.6016	1002.8
277.15 K, m1 = 0.7037	1003.28
277.15 K, m1 = 0.8092	1003.77
277.61 K, m1 = 0.1016	1000.45
277.61 K, m1 = 0.1972	1000.91
277.61 K, m1 = 0.299	1001.38
277.61 K, m1 = 0.4078	1001.89
277.61 K, m1 = 0.4957	1002.29
277.61 K, m1 = 0.6048	1002.79
277.61 K, m1 = 0.6858	1003.16
277.61 K, m1 = 0.8092	1003.73
278.12 K, m1 = 0.1016	1000.43
278.12 K, m1 = 0.1972	1000.88
278.12 K, m1 = 0.299	1001.35
278.12 K, m1 = 0.4078	1001.85
278.12 K, m1 = 0.4957	1002.27
278.12 K, m1 = 0.6048	1002.77
278.12 K, m1 = 0.6858	1003.15
278.12 K, m1 = 0.8092	1003.73
278.68 K, m1 = 0.102	1000.43
278.68 K, m1 = 0.2015	1000.9
278.68 K, m1 = 0.2995	1001.36
278.68 K, m1 = 0.4032	1001.83
278.68 K, m1 = 0.4848	1002.21
278.68 K, m1 = 0.5945	1002.7
278.68 K, m1 = 0.6875	1003.12
278.68 K, m1 = 0.7747	1003.51
